Data reported in patent US20090069441A1, “Motuporamine Mimic Agents” (priority 2006, published 2009).
Read-outs that look alike come from different tables or passages of the source.

Tests used:
[1] = tested on: polyamine transporter (PAT); assay: Ki for inhibition of [14C]spermidine uptake in L1210 cells; format: cell-based, mouse; conditions: [14C]spermidine uptake, 10-min, 1 μM substrate; read-out: L1210 Ki values
Excerpt: (§1) In terms of Table 1, L1210 cells are mouse leukemia cells and are the gold standard in terms of evaluating polyamine cytotoxicity data due to a plethora of prior data in this cell line for other polyamine structures. Clearly 7a was similar in all respects to 4a (Table 1). […] The lower the Ki value, the higher the affinity of the drug for the polyamine transporter (PAT) on the cell surface. Chinese hamster ovary (CHO) cells and a mutant line without an active PAT (CHO-MG) also evaluated the PAT selectivity of these drugs.
(§2) L1210 IC50 and Ki studies. […] The Ki values in Table 3 were determined for [^14C]spermidine uptake and reflect the affinity of the polyamine derivative for the polyamine transporter on the cell surface. With both parameters, one can determine whether high affinity for the transporter (e.g., low Ki value) translated into high cytotoxicity (e.g., low IC50 value), etc.
Ki procedure. The ability of the conjugates to interact with the polyamine transport system was determined by measuring competition by the conjugates against radiolabeled spermidine uptake in L1210 cells. Initially, the Km value of spermidine transport was determined as previously described (Clément et al., Biochem. J. 1995, 312, 933-938). The ability of conjugates to compete for [^14C]spermidine uptake were determined in L1210 cells by a 10-min uptake assay in the presence of increasing concentrations of competitor, using 1 μM [^14C]spermidine as substrate. Ki values for inhibition of spermidine uptake were determined using the Cheng-Prusoff equation (Cheng and Prusoff, Biochem. Pharmacol. 1973, 22, 3099-3108) from the IC50 value derived by iterative curve fitting of the sigmoidal equation describing the velocity of spermidine uptake in the presence of the respective competitor (Torossian et al., Biochem. J., 1996, 319, 21-26). L1210 cells were grown and maintained according to established procedures (Bergeron et al., J. Med. Chem. 2000, 43, 224-235) and were washed twice in HBSS prior to the transport assay.

[2] = tested on: CHO cells; assay: Cytotoxicity in CHO cells; format: cell-based, Chinese hamster
Excerpt: as §1
(§3) CHO and CHO-MG studies. Chinese hamster ovary (CHO) cells were chosen along with a mutant cell line (CHO-MG) in order to comment on how the synthetic conjugates gain access to cells. The CHO-MG cell line is polyamine-transport deficient and was isolated after selection for growth resistance to methylglyoxalbis(guanylhydrazone), MGBG, (CH3C[═N—NHC(═NH)NH2]CH[═N—NHC(═NH)NH2]) using a single-step selection after mutagenesis with ethylmethanesulfonate (Mandel et al., J. Cell. Physiol., 1978, 97, 335-344; Byers et al., Biochem. J. 1989, 263, 745-752).
In contrast, the parent CHO cell line represents a cell type with high PAT activity. Comparison of conjugate cytotoxicity in these two CHO lines provided an important screen to detect selective conjugate delivery via the PAT. For example, a conjugate with high utilization of the polyamine transporter would be very toxic to CHO cells, but less so to CHO-MG cells. In short, highly-selective PAT ligands should give high (CHO-MG/CHO) IC50 ratios.
(§4) Biological studies. Murine leukemia cells (L1210), CHO and CHO-MG cells were grown in RPMI medium supplemented with 10% fetal calf serum, glutamine (2 mM), penicillin (100 U/mL), streptomycin (50 μg/mL). L-Proline (2 μg/mL) was added to the culture medium for CHO-MG cells. Cells were grown at 37° C. under a humidified 5% CO2 atmosphere. […] Trypan blue staining was used to determine cell viability before the initiation of a cytotoxicity experiment. Cells in early to mid log-phase were used. IC50 determinations. Cell growth was assayed in sterile 96-well microtiter plates (Becton-Dickinson, Oxnard, Calif., USA). L1210 cells were seeded at 5e^4 cells/mL of medium (100 μL/well). CHO and CHO-MG cells were plated at 2e^3 cells/mL. Drug solutions (10 μL per well) of appropriate concentration were added at the time of seeding for L1210 cells and after an overnight incubation for the CHO cell lines. After exposure to the drug for 48 hr, cell growth was determined by measuring formazan formation from 3-(4,5-dimethylthiazol-2-yl)2,5-diphenyltetrazolium using a Titertek Multiskan MCC/340 microplate reader for absorbance (540 nm) measurements (Mosmann, T., J. Immunol. Methods 1983, 65, 55-63).

[3] = tested on: L1210 cells; assay: Cytotoxicity (cell growth, MTT) in L1210 cells; format: cell-based, mouse
Excerpt: as §1
Biological Evaluation. Once synthesized, the conjugates were screened for cytotoxicity in L1210, CHO and CHO-MG cells. L1210 (mouse leukemia) cells were selected to enable comparisons with the published IC50 and Ki values for a variety of polyamine substrates. Chinese Hamster Ovary (CHO) cells were chosen along with a mutant PAT deficient cell line (CHO-MG) in order to comment on selective transport via the PAT (Wang et al, J. Med. Chem. 2003, 46, 2663-2671; Wang et al, J. Med. Chem. 2003, 46, 2672-2682; Wang et al., J. Med. Chem. 2003, 46, 5129-5138; Delcros et al., J. Med. Chem., 2002, 45, 5098-5111).
as §2
Biological studies. Murine leukemia cells (L1210), CHO and CHO-MG cells were grown in RPMI medium supplemented with 10% fetal calf serum, glutamine (2 mM), penicillin (100 U/mL), streptomycin (50 μg/mL). L-Proline (2 μg/mL) was added to the culture medium for CHO-MG cells. Cells were grown at 37° C. under a humidified 5% CO2 atmosphere. Aminoguanidine (AG, 2 mM) was added to the culture medium to prevent oxidation of the drugs by the enzyme (bovine serum amine oxidase) present in calf serum. Trypan blue staining was used to determine cell viability before the initiation of a cytotoxicity experiment. Cells in early to mid log-phase were used. IC50 determinations. Cell growth was assayed in sterile 96-well microtiter plates (Becton-Dickinson, Oxnard, Calif., USA). L1210 cells were seeded at 5e^4 cells/mL of medium (100 μL/well). CHO and CHO-MG cells were plated at 2e^3 cells/mL. Drug solutions (10 μL per well) of appropriate concentration were added at the time of seeding for L1210 cells and after an overnight incubation for the CHO cell lines. After exposure to the drug for 48 hr, cell growth was determined by measuring formazan formation from 3-(4,5-dimethylthiazol-2-yl)2,5-diphenyltetrazolium using a Titertek Multiskan MCC/340 microplate reader for absorbance (540 nm) measurements (Mosmann, T., J. Immunol. Methods 1983, 65, 55-63).

[4] = tested on: CHO-MG cells; assay: Cytotoxicity in PAT-deficient CHO-MG cells; format: cell-based, Chinese hamster
Excerpt: as §1, §3
For the purposes of this study, the CHO-MG cell line represents cells with no PAT activity and provided a model for alternative modes of entry or action, which are independent of PAT. These alternative modes of entry include passive diffusion or utilization of another transporter. The alternative modes of action may also include interactions on the outer surface of the plasma membrane or other membrane receptor interactions.
as §4

[5] = tested on: Drosophila imaginal leg discs; assay: Imaginal disc eversion assay; format: cell-based, Drosophila melanogaster; conditions: 15 hr incubation in Robb's medium; for inhibition at 18 µM: Drosophila melanogaster
Method: DihydroMotuporamine C, 4a, was used to develop an imaginal disc assay in Drosophila flies. The imaginal leg discs were collected by microscopic dissection from maggots. […] Inhibition was measured as failure of the disc to fully develop into a fly leg after 15 hr of incubation in Robb's growth medium. This presumably occurs by overactivation of Rho, an important signaling pathway in development. Hyper-stimulation of this pathway is sufficient to block development of the fly leg.
Fly Stocks: 20 female and 5 male wild type Oregon variant of Drosophila melanogaster interbred in blue food medium for 24 hours then flies are removed. Third instar wall-crawling larvae collected then dissected on the sixth day. Flies kept in 25° C. incubation chamber.
Blue Food Preparation: Standard corn meal medium heated then mixed completely with aqueous 1% Bromophenol Blue. The food medium is cooled for one day or more before use.
Dissection Medium: Ringer's Buffer with 10 uL 0.1% BSA. Ringer's Medium consists of 130 mM NaCl, 5 mM KCl, 1.5 mM CaCl2-2H2O, Stored at room temperature (23° C.), BSA added before dissection.
Cultivation Medium: Minimal Robb's Medium with 10 uL 0.1% BSA. Minimal Robb's Medium consists of 40 mM KCl, 0.4 mM KH2PO4, 40 mM NaCl, 0.4 mM NaH2PO4.7H2O, 1.2 mM MgSO4.7H2O, 1.2 mM MgCl2-6H2O, 1 mM CaCl2-2H2O, 10 mM Glucose, 0.2 mM L-asparagine, 4.0 mM L-glutamine, 0.16 mM Glycine, 0.64 mM L-leucine, 0.32 mM L-proline, 0.16 mM R-Serine, 0.64 mM L-valine. Stored at −25° C. One day before dissection, aliquot defrosted in 4° C. Add BSA then warmed to room temperature (23° C.) before dissection.
0.1% BSA: 0.1 g BSA fraction V (Sigma#A-9647) in 10 mL distilled H2O, Stored at 4° C.
Developmental Hormone: 1 mg 20-hydroxyecdysone (Sigma #H-5142) in 1 mL 100% Ethanol. Stored at −25° C. Before use, stock is diluted 10× (1 mL added to 9 mL of 100% Ethanol). 10 μL of diluted 20-hydroxyecdysone is added to culture.
Dissection Procedures: Third instar larvae are removed from cultivation bottle with a wetted brush and washed in dH2O to remove food medium clinging to larvae. The cleaned larvae are dissected in Ringer's Medium using forceps. The imaginal discs are washed in fresh Ringer's Medium, and then cultivated with 1 mL of Robb's Medium in 12-well culture plate. Each culture well should have 30˜40 imaginal discs.
Culturing Procedures: In a larger container, place the 12-well culture plate on a moist towel, then seal the large container. Cultivate at 25° C. for 15 hours. Evaluation: Three categories will be used to grade the eversion of each imaginal disc. Full Eversion—the leg is fully extended from the disc. Partial Eversion—the leg is protruding from the epithelial. No Eversion—no sign of any protrusion.

CNCCCCNCCCCNCc1c2ccccc2cc2ccccc12 [Compound 28, N-Anthracen-9-ylmethyl-N′-(4-methylamino-butyl)-butane-1,4-diaine] was tested, and the Ki [1] was 8.2 µM, the “CHOMG/CHO IC50 ratio in the absence of AG” value ([2]; absence of AG) was 11.5 and the “IC50 Ratio (CHO-MG/CHO) w/o AG” value ([2]; absence of AG) was 11.5. The IC50 ([2]; absence of AG, 48 h, read-out: CHO IC50 w/o AG) was 4.89 µM, the “IC50 Ratio (CHO-MG/CHO), a measure of PAT selectivity” value ([2]; in the presence of AG) was 12.3 and the IC50 ([2]; in the presence of AG, 48 h at 37° C., read-out: CHO IC50) was 4.88 µM. The “IC50 Ratio (CHO-MG/CHO) with AG” value ([2]; with AG) was 12.3, the IC50 ([3]; L1210 experiments, no added SPD, read-out: L1210 IC50) was 0.4 µM and the IC50 ([3]; in the presence of AG, 48 h at 37° C., read-out: L1210 IC50) was 0.4 µM. For the same compound, the IC50 ([3]; spermidine rescue, excess SPD (200 μM), read-out: L1210 IC50 in the presence of added SPD) was 1.38 µM, the IC50 ([4]; absence of AG, 48 h, read-out: CHO-MG IC50 w/o AG) was 56.2 µM and the IC50 ([4]; in the presence of AG, 48 h at 37° C., read-out: CHO-MG IC50) was 60 µM.
With CCN(CCCN)Cc1c2ccccc2cc2ccccc12 [Compound 12c, N^1-Anthracen-9-ylmethyl-N^1-ethyl-propane-1,3-diamine] the inhibition at 18 µM [5] was 79%.
For NCCCCNCc1c2ccccc2cc2ccccc12 [Compound 13b], the “% Inhibition of eversion” value ([5]; 18 μM) was 91%.
For NCCCNCc1c2ccccc2cc2ccccc12 [Compound 16, N1-Anthracen-9-ylmethyl-propane-1,3-diamine], the inhibition at 18 µM [5] was 92%.
CCOCCCNCCCN(CC)Cc1c2ccccc2cc2ccccc12 [Compound 21, N-Anthracen-9-ylmethyl-N′-(3-ethoxy-propyl)-N-ethyl-propane-1,3-diamine] was tested, and the inhibition at 18 µM [5] was 36%.
In the case of CCN(CCCNCCCNC(C)=O)Cc1c2ccccc2cc2ccccc12 [Compound 24, N-{3-[3-(Anthracen-9-ylmethyl-ethyl-amino)-propylamino]-propyl}-acetamide], the inhibition at 18 µM [5] is reported as 58%.
CCNCCCCNCCCCNCc1c2ccccc2cc2ccccc12 [Compound 27, N-Anthracen-9-ylmethyl-N′-(4-ethylamino-butyl)-butane-1,4-diamine] gave a Ki [1] of 3.5 µM, an IC50 ([2]; Cricetulus griseus, CHO, absence of AG, 48 h, read-out: CHO IC50 w/o AG) of 13.2 µM and an IC50 ([2]; Cricetulus griseus, CHO, in the presence of AG, 48 h at 37° C., read-out: CHO IC50) of 9.82 µM. The “CHOMG/CHO IC50 ratio in the absence of AG” value ([2]; absence of AG) was 4, the “IC50 Ratio (CHO-MG/CHO) w/o AG” value ([2]; absence of AG) was 4 and the “IC50 Ratio (CHO-MG/CHO), a measure of PAT selectivity” value ([2]; in the presence of AG) was 5.9. For the same compound, the “CHOMG/CHO IC50 ratio” value ([2]; with AG) was 5.9, the “IC50 Ratio (CHO-MG/CHO) with AG” value ([2]; with AG) was 5.9 and the IC50 ([3]; Mus musculus, L1210, in the presence of AG, 48 h at 37° C., read-out: L1210 IC50) was 1.01 µM. For the same compound, the IC50 ([3]; Mus musculus, L1210 experiments, no added SPD, read-out: L1210 IC50) was 1.01 µM, the IC50 ([4]; Cricetulus griseus, CHO-MG, absence of AG, 48 h, read-out: CHO-MG IC50 w/o AG) was 51.2 µM and the IC50 ([4]; Cricetulus griseus, CHO-MG, in the presence of AG, 48 h at 37° C., read-out: CHO-MG IC50) was 57.9 µM.
For CCN(CCCNCCCO)Cc1c2ccccc2cc2ccccc12 [Compound 20, 3-[3-(Anthracen-9-ylmethyl-ethyl-amino)-propylamino]-propan-1-ol], the inhibition at 18 µM [5] was 38%.
